Measurements from US11713339B2, “Macrocyclization of peptidomimetics” (UNIVERSITY OF WARWICK, priority 2018, dated 2023).
Several values for one entry are separate records, joined by “and”; a condition that tells them apart may be missing. Identical values can stand only once. Like-named read-outs stand apart in the source and are kept apart here.

Experiments:
[1] = target: T1, porcine Aminopeptidase N (APN) (Sus scrofa, UniProt P15145); experiment: in vitro inhibition assay of aminopeptidase N (spectrophotometric, L-leucine-p-nitroanilide substrate); format: biochemical; settings: microsomal aminopeptidase from porcine kidney (pAPN), L-leucine-p-nitroanilide 250 μM, PBS pH 7.2, 37° C., 1 hour, UV 405 nm
T1 construct: microsomal aminopeptidase from porcine kidney (pAPN, Sigma Aldrich) (18 units/mg protein); purchased Sigma Aldrich; host or cells: porcine kidney (tissue-derived enzyme preparation)
T1 sequence (P15145 1-963): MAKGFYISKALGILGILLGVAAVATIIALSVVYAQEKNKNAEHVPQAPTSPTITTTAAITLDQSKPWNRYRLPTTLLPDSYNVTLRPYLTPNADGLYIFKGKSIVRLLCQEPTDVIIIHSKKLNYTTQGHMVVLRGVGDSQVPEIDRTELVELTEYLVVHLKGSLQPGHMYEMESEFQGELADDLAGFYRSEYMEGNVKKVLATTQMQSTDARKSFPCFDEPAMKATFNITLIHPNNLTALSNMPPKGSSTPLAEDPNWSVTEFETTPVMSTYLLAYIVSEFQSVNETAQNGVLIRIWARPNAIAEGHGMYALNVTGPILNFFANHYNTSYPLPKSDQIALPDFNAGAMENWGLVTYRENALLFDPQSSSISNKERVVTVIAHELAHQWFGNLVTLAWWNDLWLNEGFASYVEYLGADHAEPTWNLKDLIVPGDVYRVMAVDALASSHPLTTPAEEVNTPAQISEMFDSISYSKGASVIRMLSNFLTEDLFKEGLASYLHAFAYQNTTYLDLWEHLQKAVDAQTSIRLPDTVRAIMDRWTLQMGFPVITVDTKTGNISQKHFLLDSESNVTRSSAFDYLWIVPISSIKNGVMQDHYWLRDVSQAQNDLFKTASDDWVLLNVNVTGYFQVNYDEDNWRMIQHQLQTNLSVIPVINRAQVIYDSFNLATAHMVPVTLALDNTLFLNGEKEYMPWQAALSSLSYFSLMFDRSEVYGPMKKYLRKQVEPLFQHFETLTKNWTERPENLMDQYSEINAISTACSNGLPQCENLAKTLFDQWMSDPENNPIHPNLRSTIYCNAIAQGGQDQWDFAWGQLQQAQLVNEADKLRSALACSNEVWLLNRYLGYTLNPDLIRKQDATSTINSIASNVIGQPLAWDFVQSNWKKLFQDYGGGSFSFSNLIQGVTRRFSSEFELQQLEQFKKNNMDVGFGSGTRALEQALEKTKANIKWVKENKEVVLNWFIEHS
Experimental: IC50 values were calculated by following the formation of p-nitroaniline. Formation of p-nitroaniline was monitored by measurement of the UV absorption at 405 nm on a Hidex Sense plate reader. The assay was performed in a 96-well plate in PBS buffer (pH 7.2, 1.47 mM KH2PO4, 7.8 mM Na2HPO4, 137 mM NaCl, 2.7 mM KCl, 1.8 mM CaCl2, 1.8 mM MgCl2) at 37° C. with a total volume of 100 μL. […] The peptides were incubated with the enzyme (1.0 μg/mL) for 5 min. before a solution of L-leucine-p-nitroanilide was added with a final concentration of 250 μM. The plate was incubated at 37° C. for 1 hour before the p-nitroaniline was detected. […] For the calculation of the IC50 values log of the concentration was plotted against the UV absorption in GraphPad Prism 5 using nonlinear regression (variable slope (four parameters) with interpolation) for analysis.

[2] = amide bond, DMF, 25.0 °C
[3] = 25.0 °C
[4] = 25.0 °C; remark: listed apart in the source
[5] = amide bond, 12-membered ring, DEPBT/DIPEA, DMF, 1.0 mM

N=C(N)NCCC[C@@H]1NC2(CNC(=O)[C@H](CC(N)=O)NC(=O)[C@@H](N)CSSC[C@@H](C(=O)O)NC1=O)COC2 [Compound 12, Cyclo(H-CVs-Asn-GOx-Arg-CVs-OH)]
IC50 [1]: 175 µM

CC(C)C[C@@H]1NC(=O)[C@H](Cc2ccc(O)cc2)NC(=O)[C@H](C)NC2(CNC(=O)[C@H](C)NC1=O)COC2 [Cyclo(Ala-GOx-Ala-Tyr-Leu)]
ring closure, yield of all isomers ([2]; from CC(C)C[C@H](NC(=O)[C@H](Cc1ccc(O)cc1)NC(=O)[C@H](C)NC1(CNC(=O)[C@H](C)N)COC1)C(=O)O, DEPBT/DIPEA, 1.0 mM, 24.0 h): 54%

CC(C)C[C@@H]1NC(=O)[C@H](Cc2ccc(O)cc2)NC(=O)[C@H](C)NC(=O)CNC(=O)[C@H](C)NC1=O [Cyclo(Ala-Gly-Ala-Tyr-Leu)]
ring closure, yield of all isomers ([2]; from CC(C)C[C@H](NC(=O)[C@H](Cc1ccc(O)cc1)NC(=O)[C@H](C)NC(=O)CNC(=O)[C@H](C)N)C(=O)O, DEPBT/DIPEA, 1.0 mM, 24.0 h): 42%

CC(C)C[C@@H]1NC(=O)[C@H](Cc2cn(C(=O)OC(C)(C)C)c3ccccc23)NC(=O)CNC2(CNC1=O)COC2 [Cyclo(Leu-GOx-Gly-Trp(Boc))]
ring closure, yield of all isomers ([2]; from CC(C)C[C@H](N)C(=O)NCC1(NCC(=O)N[C@@H](Cc2cn(C(=O)OC(C)(C)C)c3ccccc23)C(=O)O)COC1, DEPBT, 1.0 mM, 64.0 h, 6 steps): 39%

CC(C)C[C@@H]1NC(=O)[C@H](Cc2c[nH]c3ccccc23)NC(=O)CNC2(COC2)[C@H](C)NC1=O [Cyclo(Trp-Leu-AOx-Gly)]
ring closure, yield of all isomers ([2]; from CC(C)C[C@H](NC(=O)[C@@H](N)Cc1c[nH]c2ccccc12)C(=O)N[C@@H](C)C1(NCC(=O)O)COC1, DEPBT, 1.0 mM, 48.0 h): 50%

CC(C)C[C@@H]1NC(=O)[C@H](Cc2c[nH]c3ccccc23)NC(=O)CNC2(CNC1=O)COC2 [Cyclo(Trp-Leu-GOx-Gly)]
ring closure, yield of all isomers ([2]; from CC(C)C[C@H](NC(=O)[C@@H](N)Cc1c[nH]c2ccccc12)C(=O)NCC1(NCC(=O)O)COC1, DEPBT/DIPEA, 1.0 mM, 48.0 h): 65%

CC(C)C[C@@H]1NC(=O)[C@H](Cc2c[nH]c3ccccc23)NC(=O)CNC(=O)CNC1=O [Cyclo(Trp-Leu-Gly-Gly)]
ring closure, yield of all isomers ([2]; from CC(C)C[C@H](NC(=O)[C@@H](N)Cc1c[nH]c2ccccc12)C(=O)NCC(=O)NCC(=O)O, PyBOP/DIPEA, 1.0 mM, 48.0 h): 15%

CC(C)C[C@@H]1NC(=O)[C@H](Cc2ccccc2)NC(=O)[C@H]([C@@H](C)OC(C)(C)C)NC2(CNC(=O)[C@H](C(C)C)NC(=O)[C@H](Cc3ccc(OC(C)(C)C)cc3)NC1=O)CN(C(=O)OC(C)(C)C)C2 [Cyclo-(Leu-Tyr(^tBu)-Val-GAz(Boc)-Thr(^tBu)-Phe)]
ring closure, yield of all isomers ([2]; from CC(C)C[C@H](N)C(=O)N[C@@H](Cc1ccc(OC(C)(C)C)cc1)C(=O)N[C@H](C(=O)NCC1(N[C@H](C(=O)N[C@@H](Cc2ccccc2)C(=O)O)[C@@H](C)OC(C)(C)C)CN(C(=O)OC(C)(C)C)C1)C(C)C, DEPBT, 5.0 mM, 48.0 h): 57%

C[C@@H](OC(C)(C)C)[C@@H]1NC2(CNC(=O)[C@H](CCC(=O)OC(C)(C)C)NC(=O)[C@H](Cc3ccccc3)NC(=O)CNC1=O)CN(C(=O)OC(C)(C)C)C2 [Cyclo-(Phe-Glu(^tBu)-GAz(Boc)-Thr(^tBu)-Gly)]
ring closure, yield of all isomers ([2]; from C[C@@H](OC(C)(C)C)[C@H](NC1(CNC(=O)[C@H](CCC(=O)OC(C)(C)C)NC(=O)[C@@H](N)Cc2ccccc2)CN(C(=O)OC(C)(C)C)C1)C(=O)NCC(=O)O, DEPBT, 5.0 mM, 68.0 h): 73%

Cyclo(Ala-GOx-Ala-Tyr-Leu)
ring closure, isolated yield ([3]; amide bond, 15-membered ring, DEPBT/DIEA, DMF, 1.0 mM): 54%

Cyclo(Ala-Gly-Ala-Tyr-Leu)
ring closure, isolated yield ([3]; amide bond, 15-membered ring, DEPBT/DIPEA, DMF, 1.0 mM): 42%

Cyclo(Ala-Trp-GOx-Gly-Leu)
ring closure, yield after HPLC ([4]; amide bond, 15-membered ring, DEPBT/DIPEA, DMF, 1.0 mM, with chain assembly): 13%

Cyclo(Boc-Cys-GOx-Cys-OtBu)
ring closure, isolated yield ([3]; disulfide bond, 11-membered ring, I2, MeOH, 5.0 mM): 64%

Cyclo(H-CVs-Asn-GOx-Arg-CVs-OH)
ring closure, yield after HPLC ([4]; disulfide bond, 17-membered ring, I2, MeOH, 10.0 mM, 2 steps): 32%

Cyclo(Leu-GOx-Gly-Trp(Boc))
ring closure, isolated yield ([3]; amide bond, 12-membered ring, DEPBT/DIPEA, DMF, 1.0 mM, with chain assembly): 39%

Cyclo(Met-Ala-Trp-GOx-Gly-Leu)
ring closure, yield after HPLC ([4]; amide bond, 18-membered ring, DEPBT/DIPEA, DMF, 1.0 mM, with chain assembly): 7%

Cyclo(Ser-Met-Ala-Trp-GOx-Gly-Leu)
ring closure, yield after HPLC ([4]; amide bond, 21-membered ring, DEPBT/DIPEA, DMF, 1.0 mM, with chain assembly): 13%

Cyclo(Trp-Leu-AOx-Gly)
ring closure, isolated yield [3, 5]: 49% and 50%

Cyclo(Trp-Leu-GOx-Gly)
ring closure, isolated yield ([3]; amide bond, 12-membered ring, DEPBT/DIEA, DMF, 1.0 mM): 65%

Cyclo(Trp-Leu-Gly-Gly)
ring closure, isolated yield ([3]; amide bond, 12-membered ring, PyBOP/DIEA, DMF, 1.0 mM): 15%

Cyclo-((D)Pro-Leu-GAz(Boc)-Gly)
ring closure, isolated yield [3, 5]: 79%

Cyclo-(Leu-Tyr(^tBu)-Val-GAz(Boc)-Thr(^tBu)-Phe)
ring closure, isolated yield ([3]; amide bond, 18-membered ring, DEPBT/DIPEA, DMF, 5.0 mM): 57%

Cyclo-(Phe-Glu(^tBu)-GAz(Boc)-Thr(^tBu)-Gly)
ring closure, isolated yield ([3]; amide bond, 15-membered ring, DEPBT/DIPEA, DMF, 5.0 mM): 73%
